Reference: patent US8080519B2, “Compositions and methods for enhanced pharmacological activity of compositions comprising peptide drug substances” (priority 1999, dated 2011)

Assays:
male Wistar rats = experiment: hot plate test in rats (time to first licking of the posterior foot); format: in vivo, rat; conditions: for Time to first signal activity after oral administration: morphine, codeine, ibuprofen 10 mg/kg; for Time to first signal activity after oral administration / Time to first signal activity after i.v. administration: CY5M 2.5 mg/kg; for Time to first signal activity after i.v. administration: morphine 1 mg/kg
Description: The time to first licking of the posterior foot by the rat is recorded after the rat has been place on a hot plate maintained at an elevated temperature (40° C.). This procedure provides accurate data on central analgesic activities induced by various candidate drugs. Under placebo conditions, the time to first licking of the posterior foot of the test animal varies between 30 and 50 seconds. […] In the experiments reported herein, a standard hot plate test was used to assess analgesia and the time to first licking of the test animal's posterior foot was used as the triggering event for measurement of elapsed time as indicative of the pharmacological effect of the administered drug species.
Seven groups of five male Wistar rats each were randomly assigned to the following treatments: placebo, 1 mg/kg morphine (i.v.), 10 mg/kg morphine (oral), 10 mg/kg codeine (oral), 10 mg/kg ibuprofen (oral), 2.5 mg/kg CY5M (i.v.), and 2.5 mg/kg CY5M (oral). The method was pre-validated with two oral and i.v. administrations of saline placebo and the results were similar to those obtained with placebo in the experiment reported below.

[1] = cited from earlier work
[2] = cited from earlier work; remark: listed apart in the source
splenocytes = experiment: T cell proliferation in a skin immunization model (tritiated thymidine incorporation by splenocytes); format: in vivo, mice; conditions: for Proliferation Index: splenocytes grown 4 days, 2 weeks after skin immunization; for proliferation index, overall comparison: comparison among the tested formulations
Description: Model: • 9 week old mice were immunized by application on bare skin of 100·g of Nef(66-97) peptide sequence and modifications thereof in addition to 5·g of choleric toxin and 100·g of oligodeoxynucleotide containing a CpG moiety (Immunology, 2002 104:1-14). 2 weeks later splenocytes were collected and grown over 4 days in the presence of 4 different concentrations of Nef(66-97) peptide (SEQ ID NO:2). The proliferation was measured by incorporating tritiated thymidine.

Compound: COc1ccc2c3c1O[C@H]1[C@@H](O)C=C[C@H]4[C@@H](C2)N(C)CC[C@@]341 [Codeine]
- Time to first signal activity after oral administration (male Wistar rats; oral, 0 h): 53.2 s
- Time to first signal activity after oral administration (male Wistar rats; oral, 1 h): 51.4 s
- Time to first signal activity after oral administration (male Wistar rats; oral, 2 h): 64.6 s
- Time to first signal activity after oral administration (male Wistar rats; oral, 4 h): 57.6 s
- Time to first signal activity after oral administration (male Wistar rats; oral, 6 h): 56.2 s
- Time to first signal activity after oral administration (male Wistar rats; oral, 24 h): 46.4 s

Compound: CCOC(=O)[C@H](CCc1ccccc1)N[C@@H](C)C(=O)N1CCC[C@H]1C(=O)O [Enalapril]
- oral absorption [1]: better absorbed orally

Compound: C[C@H](N[C@@H](CCc1ccccc1)C(=O)O)C(=O)N1CCC[C@H]1C(=O)O [Enalaprilat]
- oral absorption [1]: very poorly absorbed orally

Compound: CC(C)Cc1ccc(C(C)C(=O)O)cc1 (stereo not drawn) [Ibuprofen]
- Time to first signal activity after oral administration (male Wistar rats; oral, 0 h): 53.2 s
- Time to first signal activity after oral administration (male Wistar rats; oral, 1 h): 55.0 s
- Time to first signal activity after oral administration (male Wistar rats; oral, 2 h): 70.4 s
- Time to first signal activity after oral administration (male Wistar rats; oral, 4 h): 66.0 s
- Time to first signal activity after oral administration (male Wistar rats; oral, 6 h): 54.0 s
- Time to first signal activity after oral administration (male Wistar rats; oral, 24 h): 44.2 s

Compound: NCCCC[C@H](N[C@@H](CCc1ccccc1)C(=O)O)C(=O)N1CCC[C@H]1C(=O)O [Lisinopril]
- oral bioavailability [1]: < 25%
- Tmax (time to maximum serum levels in vivo) ([1]; oral): more than seven
- solubility in water [2]: relatively good solubility in water

Compound: CN1CC[C@]23c4c5ccc(O)c4O[C@H]2[C@@H](O)C=C[C@H]3[C@H]1C5 [Morphine]
- duration of analgesic effect (male Wistar rats; i.v. administration): six
- Time to first signal activity after i.v. administration (male Wistar rats; i.v., 0 h): 51.8 s
- Time to first signal activity after i.v. administration (male Wistar rats; i.v., 1 h): 118.8 s
- Time to first signal activity after i.v. administration (male Wistar rats; i.v., 2 h): 86.6 s
- Time to first signal activity after i.v. administration (male Wistar rats; i.v., 4 h): 63.2 s
- Time to first signal activity after i.v. administration (male Wistar rats; i.v., 6 h): 45.6 s
- Time to first signal activity after i.v. administration (male Wistar rats; i.v., 24 h): 40.0 s
- duration of analgesic effect (male Wistar rats; oral administration): six
- Time to first signal activity after oral administration (male Wistar rats; oral, 0 h): 51.8 s
- Time to first signal activity after oral administration (male Wistar rats; oral, 1 h): 84.8 s
- Time to first signal activity after oral administration (male Wistar rats; oral, 2 h): 81.2 s
- Time to first signal activity after oral administration (male Wistar rats; oral, 4 h): 58.8 s
- Time to first signal activity after oral administration (male Wistar rats; oral, 6 h): 48.8 s
- Time to first signal activity after oral administration (male Wistar rats; oral, 24 h): 42.0 s

Compound: Cinnamoyl-Nef(66-97) G95ψ . . . (CH2—CH2) G96 [C0]
- Proliferation Index (splenocytes; Conc. of Nef peptide 0.5): 12
- Proliferation Index (splenocytes; Conc. of Nef peptide 5): 14
- Proliferation Index (splenocytes; Conc. of Nef peptide 50): 12
- Proliferation Index (splenocytes; Conc. of Nef peptide .05): 08

Compound: Cinnamoyl-aminooctanoyl-Nef(66-97) G95ψ . . . (CH2—CH2) G96 [CC8]
- Proliferation Index (splenocytes; Conc. of Nef peptide 0.5): 22
- Proliferation Index (splenocytes; Conc. of Nef peptide 5): 20
- Proliferation Index (splenocytes; Conc. of Nef peptide 50): 16
- Proliferation Index (splenocytes; Conc. of Nef peptide .05): 10
- proliferation index, overall comparison (splenocytes): best proliferation index

Compound: Cinnamoyl-aminovaleryl-Nef(66-97) G95ψ . . . (CH2—CH2) G96 [CC5]
- Proliferation Index (splenocytes; Conc. of Nef peptide 0.5): 22
- Proliferation Index (splenocytes; Conc. of Nef peptide 5): 21
- Proliferation Index (splenocytes; Conc. of Nef peptide 50): 20
- Proliferation Index (splenocytes; Conc. of Nef peptide .05): 11
- proliferation index, overall comparison (splenocytes): best proliferation index

Compound: D-Gal(OPiv)4-hydroxyvaleryl-aminooctanoyl-Nef(66-97) • G95ψ . . . (CH2—CH2) G96 [Pivgal]
- Proliferation Index (splenocytes; Conc. of Nef peptide 0.5): 05
- Proliferation Index (splenocytes; Conc. of Nef peptide 5): 08
- Proliferation Index (splenocytes; Conc. of Nef peptide 50): 10
- Proliferation Index (splenocytes; Conc. of Nef peptide .05): 02

Compound: Nef(66-97)-palmitoyl lysilamide [Lipo]
- Proliferation Index (splenocytes; Conc. of Nef peptide 0.5): 06
- Proliferation Index (splenocytes; Conc. of Nef peptide 5): 08
- Proliferation Index (splenocytes; Conc. of Nef peptide 50): 07
- Proliferation Index (splenocytes; Conc. of Nef peptide .05): 03

Compound: Tyr-Gly-Gly-Phe-Met [Met-Enkephalin]
- duration of transient effect after i.v. administration (male Wistar rats; preliminary study, i.v.): about 15 minutes
- analgesic effect after oral administration (male Wistar rats; preliminary study, oral, 5 mg/kg dose): unable to demonstrate any effect

Compound: VGFPVTPQVPLRPMTYKAAVDLSHFLKEKGGL [Nef]
- Proliferation Index (splenocytes; Conc. of Nef peptide 0.5): 10
- Proliferation Index (splenocytes; Conc. of Nef peptide 5): 13
- Proliferation Index (splenocytes; Conc. of Nef peptide 50): 10
- Proliferation Index (splenocytes; Conc. of Nef peptide .05): 03

Compound: cinnamoyl-Met-Enkephalin [CY5M]
- duration of analgesic effect (male Wistar rats; i.v. administration): ≥ 24 h
- Time to first signal activity after i.v. administration (male Wistar rats; i.v., 0 h): 51.0 s
- Time to first signal activity after i.v. administration (male Wistar rats; i.v., 1 h): 57.0 s
- Time to first signal activity after i.v. administration (male Wistar rats; i.v., 2 h): 114.0 s
- Time to first signal activity after i.v. administration (male Wistar rats; i.v., 4 h): 88.2 s
- Time to first signal activity after i.v. administration (male Wistar rats; i.v., 6 h): 106.0 s
- Time to first signal activity after i.v. administration (male Wistar rats; i.v., 24 h): 86.6 s
- effectiveness relative to morphine by the same route (area under the dose response curve) (male Wistar rats; i.v., CY5M 2.5 mg/kg vs morphine 1 mg/kg): at least 8 times
- duration of analgesic effect (male Wistar rats; oral administration): ≥ 24 h
- Time to first signal activity after oral administration (male Wistar rats; oral, 0 h): 53.6 s
- Time to first signal activity after oral administration (male Wistar rats; oral, 1 h): 46.2 s
- Time to first signal activity after oral administration (male Wistar rats; oral, 2 h): 78.8 s
- Time to first signal activity after oral administration (male Wistar rats; oral, 4 h): 78.2 s
- Time to first signal activity after oral administration (male Wistar rats; oral, 6 h): 82.6 s
- Time to first signal activity after oral administration (male Wistar rats; oral, 24 h): 98.8 s
- effectiveness relative to morphine by the same route (area under the dose response curve) (male Wistar rats; oral, CY5M 2.5 mg/kg vs morphine 10 mg/kg): at least 8 times
